Reference: patent publication US10231954B2, “Neurodegenerative therapies” (LYTIX BIOPHARMA AS, priority 2014, dated 2019)

Legend:
MKK6 = target: T1, MKK6 (Homo sapiens, UniProt P52564); assay: Kinase profiling MKK6; format: biochemical
T1 sequence (P52564 1-334): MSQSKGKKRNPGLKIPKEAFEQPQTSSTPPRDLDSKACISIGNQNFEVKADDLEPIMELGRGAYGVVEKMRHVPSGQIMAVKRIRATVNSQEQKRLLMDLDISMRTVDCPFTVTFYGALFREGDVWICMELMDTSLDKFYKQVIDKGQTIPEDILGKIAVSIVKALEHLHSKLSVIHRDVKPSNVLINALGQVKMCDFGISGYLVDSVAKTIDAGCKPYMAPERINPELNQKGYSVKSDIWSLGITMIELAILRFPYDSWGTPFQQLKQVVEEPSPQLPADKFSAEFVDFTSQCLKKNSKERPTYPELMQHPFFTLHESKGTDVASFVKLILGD
Description: (§1) Any value less that 25 is considered to be highly significant inhibition.

ERK2 = ERK2 (Homo sapiens, UniProt P28482); assay: Kinase profiling ERK2; format: biochemical
Description: as §1

JNK1 = JNK1 (Homo sapiens, UniProt P45983); assay: Kinase profiling JNK1; format: biochemical
Sequence of JNK1 (P45983 whole entry, species assumed): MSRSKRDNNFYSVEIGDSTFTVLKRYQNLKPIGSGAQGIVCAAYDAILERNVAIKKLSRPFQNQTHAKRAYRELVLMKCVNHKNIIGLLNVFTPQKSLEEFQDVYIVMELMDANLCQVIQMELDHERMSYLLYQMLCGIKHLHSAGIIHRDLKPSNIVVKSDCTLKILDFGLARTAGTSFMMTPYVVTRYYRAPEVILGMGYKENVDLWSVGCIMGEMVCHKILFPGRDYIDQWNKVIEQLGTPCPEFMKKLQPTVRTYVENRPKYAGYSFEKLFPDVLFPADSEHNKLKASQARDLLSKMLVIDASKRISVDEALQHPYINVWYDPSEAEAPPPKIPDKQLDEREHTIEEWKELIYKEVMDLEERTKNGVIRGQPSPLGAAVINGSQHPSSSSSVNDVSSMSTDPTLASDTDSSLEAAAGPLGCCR
Description: as §1

JNK2 = JNK2 (Homo sapiens, UniProt P45984); assay: Kinase profiling JNK2; format: biochemical
Description: as §1

p38d MAPK = target: T2, p38d MAPK (Homo sapiens, UniProt O15264); assay: Kinase profiling p38d MAPK; format: biochemical
T2 sequence (O15264 1-365): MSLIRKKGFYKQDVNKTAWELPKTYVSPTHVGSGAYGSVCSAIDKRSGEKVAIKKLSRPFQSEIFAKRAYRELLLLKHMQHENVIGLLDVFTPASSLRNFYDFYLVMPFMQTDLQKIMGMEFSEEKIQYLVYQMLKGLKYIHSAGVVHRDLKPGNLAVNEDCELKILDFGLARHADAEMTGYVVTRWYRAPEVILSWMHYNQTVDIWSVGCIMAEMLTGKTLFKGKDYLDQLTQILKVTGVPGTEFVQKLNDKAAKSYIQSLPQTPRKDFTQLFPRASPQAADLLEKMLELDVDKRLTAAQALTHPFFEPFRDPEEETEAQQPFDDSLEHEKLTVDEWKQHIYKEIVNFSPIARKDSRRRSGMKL
Description: as §1

PDK1 = target: T3, PDK1 (Homo sapiens, UniProt O15530); assay: Kinase profiling PDK1; format: biochemical
T3 sequence (O15530 1-556): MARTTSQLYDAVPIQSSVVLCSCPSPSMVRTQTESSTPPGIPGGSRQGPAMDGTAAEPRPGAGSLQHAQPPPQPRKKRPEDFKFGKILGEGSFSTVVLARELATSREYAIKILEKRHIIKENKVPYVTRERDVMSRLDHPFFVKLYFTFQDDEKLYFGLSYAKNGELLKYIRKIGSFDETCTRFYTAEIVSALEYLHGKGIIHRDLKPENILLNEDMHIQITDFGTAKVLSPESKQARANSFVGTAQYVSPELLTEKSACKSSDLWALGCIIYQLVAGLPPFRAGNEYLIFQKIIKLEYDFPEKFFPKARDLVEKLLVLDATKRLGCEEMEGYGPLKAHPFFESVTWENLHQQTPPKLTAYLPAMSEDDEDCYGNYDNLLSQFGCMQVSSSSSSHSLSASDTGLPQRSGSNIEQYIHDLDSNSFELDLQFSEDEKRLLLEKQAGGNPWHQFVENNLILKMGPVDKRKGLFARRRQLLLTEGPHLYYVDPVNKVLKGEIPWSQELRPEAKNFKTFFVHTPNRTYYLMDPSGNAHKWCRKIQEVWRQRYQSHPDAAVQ
Description: as §1

PKBa = PKBa (Homo sapiens, UniProt P31749); assay: Kinase profiling PKBa; format: biochemical
Sequence of PKBa (P31749 whole entry): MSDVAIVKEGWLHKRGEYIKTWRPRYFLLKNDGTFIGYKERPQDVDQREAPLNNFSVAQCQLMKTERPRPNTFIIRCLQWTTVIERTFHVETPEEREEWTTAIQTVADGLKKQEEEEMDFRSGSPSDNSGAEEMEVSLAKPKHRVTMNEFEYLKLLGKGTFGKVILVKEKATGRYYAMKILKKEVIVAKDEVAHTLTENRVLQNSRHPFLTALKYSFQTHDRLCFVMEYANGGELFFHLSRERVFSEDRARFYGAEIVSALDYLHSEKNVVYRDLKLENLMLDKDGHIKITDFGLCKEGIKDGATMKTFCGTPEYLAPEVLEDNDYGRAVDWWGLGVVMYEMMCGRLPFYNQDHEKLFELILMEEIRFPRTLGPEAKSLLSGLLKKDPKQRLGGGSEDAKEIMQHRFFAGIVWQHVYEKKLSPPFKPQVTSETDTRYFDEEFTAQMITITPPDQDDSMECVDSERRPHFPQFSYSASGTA
Description: as §1

S6K1 = S6K1 (Homo sapiens, UniProt P23443); assay: Kinase profiling S6K1; format: biochemical
Description: as §1

PKCγ = PKCγ (Homo sapiens, UniProt P05129); assay: Kinase profiling PKCγ; format: biochemical
Description: as §1

MSK1 = MSK1 (Homo sapiens, UniProt O75582); assay: Kinase profiling MSK1; format: biochemical
Sequence of MSK1 (O75582 whole entry, species assumed): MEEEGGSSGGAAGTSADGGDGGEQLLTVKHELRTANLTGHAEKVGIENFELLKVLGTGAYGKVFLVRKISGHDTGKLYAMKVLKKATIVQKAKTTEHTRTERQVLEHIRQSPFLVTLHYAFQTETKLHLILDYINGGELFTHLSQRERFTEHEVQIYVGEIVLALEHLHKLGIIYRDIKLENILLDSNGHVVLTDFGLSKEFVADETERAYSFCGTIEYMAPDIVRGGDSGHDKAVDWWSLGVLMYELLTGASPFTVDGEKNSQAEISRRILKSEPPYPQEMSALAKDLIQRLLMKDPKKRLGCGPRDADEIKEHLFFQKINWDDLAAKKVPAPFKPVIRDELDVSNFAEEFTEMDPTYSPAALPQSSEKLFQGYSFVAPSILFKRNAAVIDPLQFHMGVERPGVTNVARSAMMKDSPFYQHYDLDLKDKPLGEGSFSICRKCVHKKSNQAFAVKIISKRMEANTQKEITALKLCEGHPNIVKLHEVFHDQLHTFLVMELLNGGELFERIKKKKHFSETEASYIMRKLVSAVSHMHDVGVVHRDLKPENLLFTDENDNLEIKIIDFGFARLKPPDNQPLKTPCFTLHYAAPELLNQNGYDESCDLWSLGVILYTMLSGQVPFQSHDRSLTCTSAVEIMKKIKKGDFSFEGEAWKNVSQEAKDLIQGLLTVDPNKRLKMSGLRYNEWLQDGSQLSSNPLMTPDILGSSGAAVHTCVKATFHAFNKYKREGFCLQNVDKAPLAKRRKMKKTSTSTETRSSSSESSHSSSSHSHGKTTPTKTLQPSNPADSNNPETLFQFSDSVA
Description: as §1

CAMK1 = CAMK1 (Homo sapiens, UniProt Q14012); assay: Kinase profiling CAMK1; format: biochemical
Sequence of CAMK1 (Q14012 whole entry, species assumed): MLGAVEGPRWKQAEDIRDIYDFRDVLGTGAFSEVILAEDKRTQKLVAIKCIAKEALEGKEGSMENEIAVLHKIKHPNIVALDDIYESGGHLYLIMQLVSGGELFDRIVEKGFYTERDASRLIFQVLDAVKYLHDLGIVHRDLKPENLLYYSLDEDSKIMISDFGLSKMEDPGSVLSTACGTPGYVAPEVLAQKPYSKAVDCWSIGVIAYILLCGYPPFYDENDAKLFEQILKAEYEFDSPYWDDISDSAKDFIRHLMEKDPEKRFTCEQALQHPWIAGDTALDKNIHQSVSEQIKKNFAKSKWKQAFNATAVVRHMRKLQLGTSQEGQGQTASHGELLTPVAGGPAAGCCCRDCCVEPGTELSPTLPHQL
Description: as §1

PLK1 = PLK1 (Homo sapiens, UniProt P53350); assay: Kinase profiling PLK1; format: biochemical
Description: as §1

AMPK (hum) = assay: Kinase profiling AMPK (hum); format: biochemical, human
Description: as §1

NEK6 = NEK6 (Homo sapiens, UniProt Q9HC98); assay: Kinase profiling NEK6; format: biochemical
Sequence of NEK6 (Q9HC98 whole entry, species assumed): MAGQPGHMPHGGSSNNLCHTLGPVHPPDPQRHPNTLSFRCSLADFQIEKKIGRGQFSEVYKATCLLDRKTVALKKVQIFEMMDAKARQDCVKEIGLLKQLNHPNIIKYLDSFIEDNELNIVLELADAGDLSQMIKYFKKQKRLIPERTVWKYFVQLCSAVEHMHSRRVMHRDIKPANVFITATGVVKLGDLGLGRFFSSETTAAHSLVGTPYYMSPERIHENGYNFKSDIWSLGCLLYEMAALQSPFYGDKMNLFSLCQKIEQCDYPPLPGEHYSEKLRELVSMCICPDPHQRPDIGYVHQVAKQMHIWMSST
Description: as §1

PIM1 = PIM1 (Homo sapiens, UniProt P11309); assay: Kinase profiling PIM1; format: biochemical
Description: as §1

SRPK1 = SRPK1 (Homo sapiens, UniProt Q96SB4); assay: Kinase profiling SRPK1; format: biochemical
Sequence of SRPK1 (Q96SB4 whole entry, species assumed): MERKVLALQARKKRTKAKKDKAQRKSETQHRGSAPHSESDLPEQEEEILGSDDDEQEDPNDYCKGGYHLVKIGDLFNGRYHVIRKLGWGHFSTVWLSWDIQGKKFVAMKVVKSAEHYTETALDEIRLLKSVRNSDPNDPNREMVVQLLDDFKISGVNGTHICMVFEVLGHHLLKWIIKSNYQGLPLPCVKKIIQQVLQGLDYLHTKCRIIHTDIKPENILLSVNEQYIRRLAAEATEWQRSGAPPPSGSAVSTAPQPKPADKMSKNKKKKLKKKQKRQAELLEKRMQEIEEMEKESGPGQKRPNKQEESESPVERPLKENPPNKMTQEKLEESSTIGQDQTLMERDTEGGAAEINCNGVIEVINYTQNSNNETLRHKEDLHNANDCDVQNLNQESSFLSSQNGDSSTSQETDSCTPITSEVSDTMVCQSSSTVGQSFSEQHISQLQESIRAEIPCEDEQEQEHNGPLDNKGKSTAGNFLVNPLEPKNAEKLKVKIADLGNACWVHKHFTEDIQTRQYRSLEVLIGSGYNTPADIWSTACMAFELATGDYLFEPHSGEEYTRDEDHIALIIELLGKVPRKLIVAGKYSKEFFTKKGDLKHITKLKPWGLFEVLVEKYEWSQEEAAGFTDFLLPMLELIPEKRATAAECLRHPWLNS
Description: as §1

HIPK2 = HIPK2 (Homo sapiens, UniProt Q9H2X6); assay: Kinase profiling HIPK2; format: biochemical
Description: as §1

MLK3 = MLK3 (Homo sapiens, UniProt Q16584); assay: Kinase profiling MLK3; format: biochemical
Sequence of MLK3 (Q16584 whole entry, species assumed): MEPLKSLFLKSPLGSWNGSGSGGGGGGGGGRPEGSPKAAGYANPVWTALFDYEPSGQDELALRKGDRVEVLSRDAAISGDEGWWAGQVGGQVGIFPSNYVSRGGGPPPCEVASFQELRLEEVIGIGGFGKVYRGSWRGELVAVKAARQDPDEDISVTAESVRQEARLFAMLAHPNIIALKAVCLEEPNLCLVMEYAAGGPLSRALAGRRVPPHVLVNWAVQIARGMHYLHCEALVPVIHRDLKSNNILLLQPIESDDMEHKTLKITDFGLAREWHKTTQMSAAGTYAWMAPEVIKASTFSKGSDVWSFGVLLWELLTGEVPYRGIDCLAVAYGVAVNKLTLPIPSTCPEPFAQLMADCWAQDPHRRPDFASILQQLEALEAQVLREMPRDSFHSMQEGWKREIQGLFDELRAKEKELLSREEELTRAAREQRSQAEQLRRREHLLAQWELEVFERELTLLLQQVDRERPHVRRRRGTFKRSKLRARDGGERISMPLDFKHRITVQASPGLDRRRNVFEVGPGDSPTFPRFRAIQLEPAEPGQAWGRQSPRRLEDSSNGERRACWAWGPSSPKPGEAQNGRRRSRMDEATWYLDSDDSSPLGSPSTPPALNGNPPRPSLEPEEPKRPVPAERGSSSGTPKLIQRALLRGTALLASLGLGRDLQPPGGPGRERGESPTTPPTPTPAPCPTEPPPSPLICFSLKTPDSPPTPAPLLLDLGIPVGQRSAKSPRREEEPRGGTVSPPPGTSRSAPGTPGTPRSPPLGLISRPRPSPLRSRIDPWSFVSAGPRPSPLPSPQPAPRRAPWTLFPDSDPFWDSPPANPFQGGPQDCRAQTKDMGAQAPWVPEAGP
Description: as §1

TAK1 = target: T4, TAK1 (Homo sapiens, UniProt O43318); assay: Kinase profiling TAK1; format: biochemical
T4 sequence (O43318 1-303 limits assumed): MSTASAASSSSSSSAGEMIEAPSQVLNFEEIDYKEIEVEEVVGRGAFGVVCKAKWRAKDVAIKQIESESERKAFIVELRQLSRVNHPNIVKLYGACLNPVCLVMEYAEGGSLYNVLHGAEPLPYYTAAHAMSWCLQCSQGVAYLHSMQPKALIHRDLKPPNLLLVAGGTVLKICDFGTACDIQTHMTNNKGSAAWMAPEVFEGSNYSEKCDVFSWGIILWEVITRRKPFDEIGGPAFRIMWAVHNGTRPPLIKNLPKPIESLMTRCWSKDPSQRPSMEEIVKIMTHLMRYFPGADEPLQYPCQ
T4 sequence (Q15750 437-504 partner limits assumed): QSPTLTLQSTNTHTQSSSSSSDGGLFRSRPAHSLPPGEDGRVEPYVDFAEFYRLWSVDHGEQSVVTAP
Description: as §1

JAK2 = JAK2 (Homo sapiens, UniProt O60674); assay: Kinase profiling JAK2; format: biochemical
Sequence of JAK2 (O60674 whole entry, species assumed): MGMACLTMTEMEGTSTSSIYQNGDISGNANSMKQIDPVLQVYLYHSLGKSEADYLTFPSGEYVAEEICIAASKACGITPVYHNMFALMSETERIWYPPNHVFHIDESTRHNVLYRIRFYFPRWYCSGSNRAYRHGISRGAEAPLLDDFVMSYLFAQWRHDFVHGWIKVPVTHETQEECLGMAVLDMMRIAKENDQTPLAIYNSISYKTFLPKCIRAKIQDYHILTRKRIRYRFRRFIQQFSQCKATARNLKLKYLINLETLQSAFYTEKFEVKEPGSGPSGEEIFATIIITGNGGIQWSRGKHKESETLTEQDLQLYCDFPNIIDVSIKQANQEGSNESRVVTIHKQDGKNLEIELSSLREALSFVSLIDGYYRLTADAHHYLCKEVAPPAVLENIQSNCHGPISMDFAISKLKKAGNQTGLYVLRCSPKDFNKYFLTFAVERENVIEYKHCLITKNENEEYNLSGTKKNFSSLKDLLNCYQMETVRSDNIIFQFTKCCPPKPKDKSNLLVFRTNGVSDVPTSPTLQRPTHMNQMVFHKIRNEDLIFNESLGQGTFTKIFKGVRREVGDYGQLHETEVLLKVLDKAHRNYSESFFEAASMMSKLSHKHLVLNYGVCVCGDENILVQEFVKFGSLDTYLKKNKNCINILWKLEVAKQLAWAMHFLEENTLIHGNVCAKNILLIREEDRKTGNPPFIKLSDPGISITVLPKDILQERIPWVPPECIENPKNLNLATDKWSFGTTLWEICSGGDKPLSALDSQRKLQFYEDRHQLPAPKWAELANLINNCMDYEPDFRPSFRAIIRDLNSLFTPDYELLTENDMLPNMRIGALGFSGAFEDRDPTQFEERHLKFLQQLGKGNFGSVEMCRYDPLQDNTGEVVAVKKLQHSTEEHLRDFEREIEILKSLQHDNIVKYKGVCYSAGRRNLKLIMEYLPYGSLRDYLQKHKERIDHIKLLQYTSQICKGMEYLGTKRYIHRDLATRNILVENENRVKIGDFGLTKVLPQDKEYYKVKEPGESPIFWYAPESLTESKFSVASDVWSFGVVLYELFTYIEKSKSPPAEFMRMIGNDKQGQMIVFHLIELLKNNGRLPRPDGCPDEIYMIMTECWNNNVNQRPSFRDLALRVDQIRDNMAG
Description: as §1

HER4 = HER4 (Homo sapiens, UniProt Q15303); assay: Kinase profiling HER4; format: biochemical
Description: as §1

TrkA = TrkA (Homo sapiens, UniProt P04629); assay: Kinase profiling TrkA; format: biochemical
Description: as §1

[1] = 100 micromolar inhibitor concentration, 100 is no change

## CC(=O)Nc1cccc(NC(=O)c2nc3ccc(O)cc3s2)c1 [Compound 03-07, N-(3-acetamidophenyl)-6-hydroxybenzo[d]thiazole-2-carboxamide]
MKK6; 100 micromolar inhibitor, 100 = no change, read-out: residual kinase activity, MKK6
  remaining activity at 100 µM: 114%
ERK2; 100 micromolar inhibitor, 100 = no change, read-out: residual kinase activity, ERK2
  remaining activity at 100 µM: 96%
JNK1; 100 micromolar inhibitor, 100 = no change, read-out: residual kinase activity, JNK1
  remaining activity at 100 µM: 103%
JNK2; 100 micromolar inhibitor, 100 = no change, read-out: residual kinase activity, JNK2
  remaining activity at 100 µM: 104%
p38d MAPK; 100 micromolar inhibitor, 100 = no change, read-out: residual kinase activity, p38d MAPK
  remaining activity at 100 µM: 81%
PDK1; 100 micromolar inhibitor, 100 = no change, read-out: residual kinase activity, PDK1
  remaining activity at 100 µM: 72%
PKBa; 100 micromolar inhibitor, 100 = no change, read-out: residual kinase activity, PKBa
  remaining activity at 100 µM: 103%
S6K1; 100 micromolar inhibitor, 100 = no change, read-out: residual kinase activity, S6K1
  remaining activity at 100 µM: 26%
PKCγ; 100 micromolar inhibitor, 100 = no change, read-out: residual kinase activity, PKCγ
  remaining activity at 100 µM: 98%
MSK1; 100 micromolar inhibitor, 100 = no change, read-out: residual kinase activity, MSK1
  remaining activity at 100 µM: 62%
CAMK1; 100 micromolar inhibitor, 100 = no change, read-out: residual kinase activity, CAMK1
  remaining activity at 100 µM: 44%
PLK1; 100 micromolar inhibitor, 100 = no change, read-out: residual kinase activity, PLK1
  remaining activity at 100 µM: 93%
AMPK (hum); 100 micromolar inhibitor, 100 = no change
  residual kinase activity, AMPK (hum): 34
NEK6; 100 micromolar inhibitor, 100 = no change, read-out: residual kinase activity, NEK6
  remaining activity at 100 µM: 91%
PIM1; 100 micromolar inhibitor, 100 = no change, read-out: residual kinase activity, PIM1
  remaining activity at 100 µM: 25%
SRPK1; 100 micromolar inhibitor, 100 = no change, read-out: residual kinase activity, SRPK1
  remaining activity at 100 µM: 27%
HIPK2; 100 micromolar inhibitor, 100 = no change, read-out: residual kinase activity, HIPK2
  remaining activity at 100 µM: 46%
MLK3; 100 micromolar inhibitor, 100 = no change, read-out: residual kinase activity, MLK3
  remaining activity at 100 µM: 39%
TAK1; 100 micromolar inhibitor, 100 = no change, read-out: residual kinase activity, TAK1
  remaining activity at 100 µM: 53%
JAK2; 100 micromolar inhibitor, 100 = no change, read-out: residual kinase activity, JAK2
  remaining activity at 100 µM: 56%
HER4; 100 micromolar inhibitor, 100 = no change, read-out: residual kinase activity, HER4
  remaining activity at 100 µM: 50%
TrkA; 100 micromolar inhibitor, 100 = no change, read-out: residual kinase activity, TrkA
  remaining activity at 100 µM: 59%

## O=C(Nc1nc2cc(O)ccc2s1)c1ccncc1 [Compound 03-11]
MKK6; [1]
  residual kinase activity, MKK6: 101
ERK2; [1]
  residual kinase activity, ERK2: 85
JNK1; [1]
  residual kinase activity, JNK1: 95
JNK2; [1]
  residual kinase activity, JNK2: 93
p38d MAPK; [1]
  residual kinase activity, p38d MAPK: 82
PDK1; [1]
  residual kinase activity, PDK1: 100
PKBa; [1]
  residual kinase activity, PKBa: 88
S6K1; [1]
  residual kinase activity, S6K1: 83
PKCγ; [1]
  residual kinase activity, PKCγ: 101
MSK1; [1]
  residual kinase activity, MSK1: 97
CAMK1; [1]
  residual kinase activity, CAMK1: 85
PLK1; [1]
  residual kinase activity, PLK1: 76
AMPK (hum); [1]
  residual kinase activity, AMPK (hum): 98
NEK6; [1]
  residual kinase activity, NEK6: 72
PIM1; [1]
  residual kinase activity, PIM1: 74
SRPK1; [1]
  residual kinase activity, SRPK1: 66
HIPK2; [1]
  residual kinase activity, HIPK2: 67
MLK3; [1]
  residual kinase activity, MLK3: 95
TAK1; [1]
  residual kinase activity, TAK1: 55
JAK2; [1]
  residual kinase activity, JAK2: 66
HER4; [1]
  residual kinase activity, HER4: 96
TrkA; [1]
  residual kinase activity, TrkA: 87
